The subject of data set [1] is 7-ethoxyresorufin-o-deethylase (EROD) activity in a rainbow trout liver cell line (RTL-W1). As to the kind of experiment: Induction of EROD activity in RTL-W1 cells. It is filed as cell-based. The note with it: Oncorhynchus mykiss. As to the method:
For toxicity tests, reporter cells or molecules are preferably added to chambers in an appropriate culture medium. An appropriate liquid culture medium is one that will maintain reporter cell vitality (or reporter molecule integrity) and support expression of a chosen endpoint in the toxicological test. For example for the experiment depicted in FIG. 8, liver cells from rainbow trout (RTL-W1 cells) were added in Leibovitz' L-15 medium that contained 5% fetal bovine serum as a supplement (Bols et al., 1999). The reporters are left to desorb or interact with the chemicals at the sampler surface for a predetermined time. […] After a predetermined exposure time, the reporter cells are evaluated for the expression of toxicity. […] Other examples of toxicological endpoints would be the disruption of metabolic activity or the loss of cell membrane integrity in cultured cells, which can be measured using the fluorescent indicator dyes alamar Blue and CFDA-AM (Schirmer et al., 2000a/b), or the modulation of light emission in luminescent bacteria (Bitton and Koopman, 1992). Although not essential to the method, the arrangement of chambers in a multiwell plate format and the use of fluorescent indicator dyes or light emission is advantageous because of recent developments in automated fluorescence/luminescence multiwell plate readers. Plates with […] can be analyzed in seconds. […]

How the values of data set [2] were obtained: For these experiments fluoranthene was dissolved in the aqueous medium, L-15/ex, to yield 297 nM (60 ng/ml) of fluoranthene. The fluoranthene solution was added once to empty wells of tissue culture plates, and 10 min, 2, 4, and 24 h later, the medium was removed and culture wells extracted with methanol in order to solubilize fluoranthene that had adsorbed to the culture surface. The concentration of fluoranthene in the methanol extracts was subsequently determined by high performance liquid chromatography (HPLC) and expressed as a percentage of the initial concentration, 297 nM.

Where two headings read alike, the source gives them in different places.

Regarding `c1ccc2cc3c(cc2c1)-c1cccc2cccc-3c12` [BkF, benzo[k]fluoranthene], the EC50 worked out at 8.6 nM in data set [1] (BkF added in dissolved form to wells after cell attachment (conventional method), RTL-W1 cells, read-out: EC50 of EROD induction, dissolved BkF) and 10.4 nM in data set [1] (BkF adsorbed to polystyrene culture wells prior to cell attachment, RTL-W1 cells attached 24 h before EROD measurement, read-out: EC50 of EROD induction, sorbed BkF).
Consider `c1ccc2c(c1)-c1cccc3cccc-2c13` [fluoranthene], for which the “binding of fluoranthene by polystyrene of tissue culture plates” value in data set [2] (297 nM in L-15/ex, 10 min, 2, 4, 24 h) is “high affinity”. Further, the “time of exposure until sorption equilibrium is reached” value in data set [2] (single dose 297 nM (60 ng/ml) in L-15/ex in empty wells, methanol extract, HPLC) is “less than 24 h”.

(Values after patent publication US7186565B2, “Sampling and toxicity monitoring device and method” (priority 2001, dated 2007).)
